Assay results as given in patent US10195156B2, “Compounds and compositions for intracellular delivery of agents” (ModernaTX, Inc., priority 2015, dated 2019).
One block for each compound: values may come before it.

Key:
[1] = system: modified luciferase expression; assay: Expression of Luc in different organs (liver, lung, spleen, femur) 6 hours after intravenous administration; type: in vivo; details: i.v., 0.5 mpk
Experimental: The efficacy of the nanoparticle compositions presented in Tables 1, 1a, 17-1, 19-1, 20-1 and 21-1 was further evaluated by measuring the expression of modified luciferase in the liver, lung, spleen, and femur upon administration of a given composition. Formulations were administered intravenously to mice (n=3) at a dosage of 0.5 mpk and bioluminescence measured after 6 hours. The standard MC3 formulation and a PBS control were also tested.

[2] = Particle size and polydispersity index of nanoparticle compositions (Zetasizer Nano ZS); type: physicochemical
Method in brief: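 Measured in 1×PBS by Zetasizer Nano ZS.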

[3] = pKa of nanoparticle compositions; type: physicochemical
IL-6 = assay: Cytokine production induced by sample formulations: IL-6; type: in vivo; details: mice, i.v., 0.5 mpk, 6 hours; for IL-6: in pg/mL (unit assumed)
Method in brief: (§1)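 Cytokine levels were quantified at 6 hours in mice given the nanoparticle compositions i.v. at 0.5 mpk. MC3 standard formulation and PBS served as comparators.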

[4] = Encapsulation efficiency of RNA (QUANT-IT RIBOGREEN RNA assay); type: physicochemical
Method in brief: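 RiboGreen fluorescence (ex ~480, em ~520 nm) measured after 15 min at 37 °C on samples at ~5 μg/mL in TE, pH 7.5, ± 2% Triton X-100 solution. After blank subtraction, free RNA is given as intact-sample signal divided by disrupted-sample signal.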

IP-10 = assay: Cytokine production induced by sample formulations: IP-10; type: in vivo; details: mice, i.v., 0.5 mpk, 6 hours; for IP-10: in pg/mL (unit assumed)
Method in brief: as §1

[5] = system: luciferase (Luc) mRNA expression; assay: Expression of Luc induced by sample formulations, whole-body bioluminescence after intravenous administration; type: in vivo; details: mice, i.v., 0.5 mg/kg
Method in brief: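 Read-out is whole-body bioluminescence at 3, 6 and 24 h after a single intravenous dose of 0.5 mg/kg Luc mRNA in nanoparticle formulations. Groups of n=6 mice; PBS and standard MC3 formulation as references.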

[6] = comparison amongst compositions
[7] = Table 1, rows without footnote mark
[8] = Table 1, rows without footnote mark (lipid:DOPE:cholesterol:PEG-DMG 40:20:38.5:1.5, Luc mRNA; MC3 standard formulation)
[9] = Table 1, * lipid:DSPC:Chol:PEG-DMG 50:10:38.5:1.5
[10] = Table 20-1, rows without footnote mark

Compound: CCCCCCCC/C=C\CCCCCCCCN(CCCCCCCC/C=C\CCCCCCCC)CCN(CCCCCCCC/C=C\CCCCCCCC)CCN1CCN(CCN(CCCCCCCCCCCC)CCCCCCCCCCCC)CC1 [Compound 33, N^1-(2-(4-(2-(Didodecylamino)ethyl)piperazin-1-yl)ethyl)-N^1,N^2,N^2-tri((Z)-octadec-9-en-1-yl)ethane-1,2-diamine]
Total Flux Femur ([1]; Table 3, mice): 1.18E+06
Total Flux Liver ([1]; Table 3, mice, liver): 6.15E+08
Total Flux Lung ([1]; Table 3, mice): 2.84E+06
Total Flux Spleen ([1]; Table 3, mice, spleen): 4.82E+06
PDI [2, 7]: 0.138
Size (nm) [2, 8]: 79.7 nm
pKa [3, 7]: 6.06
IL-6 (IL-6; Table 4): 37
EE (%) [4, 7]: 98.1%
IP-10 (IP-10; Table 4): 1577
Total Flux 3 hours ([5]; Table 2): 1.64E+09
Total Flux 6 hours ([5]; Table 2): 4.71E+09
Total Flux 24 hours ([5]; Table 2): 1.54E+08

Compound: CCCCCCCCCCCCCCN(CCCCCCCCCCCCCC)CCN(CCCCCCCCCCCCCC)CCN1CCN(CCN(CCCCCCCCCCCC)CCCCCCCCCCCC)CC1 [Compound 31, N^1-(2-(4-(2-(Didodecylamino)ethyl)piperazin-1-yl)ethyl)-N^1,N^2,N^2-tritetradecylethane-1,2-diamine]
Total Flux Femur ([1]; Table 3, mice): 9.89E+05
Total Flux Liver ([1]; Table 3, mice, liver): 1.54E+09
Total Flux Lung ([1]; Table 3, mice): 9.81E+06
Total Flux Spleen ([1]; Table 3, mice, spleen): 1.28E+07
PDI [2, 7]: 0.130
Size (nm) [2, 8]: 87.9 nm
pKa [3, 7]: 6.31
IL-6 (IL-6; Table 4): 188
EE (%) [4, 7]: 77.5%
IP-10 (IP-10; Table 4): 2513
Total Flux 3 hours ([5]; Table 2): 1.43E+10
Total Flux 6 hours ([5]; Table 2): 1.42E+10
Total Flux 24 hours ([5]; Table 2): 3.07E+08

Compound: CCCCCCCCCCCCCCN(CCCCCCCCCCCCCC)CCN1CCN(CCN(CCCCCCCCCCCC)CCN(CCCCCCCCCCCC)CCCCCCCCCCCC)CC1 [Compound 26, N^1-(2-(4-(2-(Ditetradecylamino)ethyl)piperazin-1-yl)ethyl)-N^1,N^2,N^2-tridodecylethane-1,2-diamine]
Total Flux Liver ([1]; Table 3, mice, liver): 2.35E+06
Total Flux Lung ([1]; Table 3, mice): 3.49E+04
Total Flux Spleen ([1]; Table 3, mice, spleen): 2.30E+05
Size (nm) ([2]; Table 1, * formulated with lipid:DSPC:Chol:PEG-DMG 50:10:38.5:1.5): 74.2 nm
PDI [2, 9]: 0.112
pKa [3, 9]: 6.19
IL-6 (IL-6; Table 4): 17
EE (%) [4, 9]: 84.9%
IP-10 (IP-10; Table 4): 175
Total Flux 3 hours ([5]; Table 2): 1.65E+07
Total Flux 6 hours ([5]; Table 2): 1.04E+07
Total Flux 24 hours ([5]; Table 2): 2.75E+06

Compound: CCCCCCCC/C=C\CCCCCCCCN(CCCCCCCC/C=C\CCCCCCCC)CCN1CCN(CCN(CCCCCCCCCCCC)CCN(CCCCCCCCCCCC)CCCCCCCCCCCC)CC1 [Compound 28, N^1-(2-(4-(2-(Di((Z)-octadec-9-en-1-yl)amino)ethyl)piperazin-1-yl)ethyl)-N^1,N^2,N^2-tridodecylethane-1,2-diamine]
Total Flux Femur ([1]; Table 3, mice): 1.16E+06
Total Flux Liver ([1]; Table 3, mice, liver): 8.10E+08
Total Flux Lung ([1]; Table 3, mice): 5.73E+06
Total Flux Spleen ([1]; Table 3, mice, spleen): 5.67E+06
PDI [2, 7]: 0.099
Size (nm) [2, 8]: 87.4 nm
pKa [3, 7]: 6.04
IL-6 (IL-6; Table 4): 73
EE (%) [4, 7]: 80.2%
IP-10 (IP-10; Table 4): 5364
Total Flux 3 hours ([5]; Table 2): 6.18E+09
Total Flux 6 hours ([5]; Table 2): 7.28E+09
Total Flux 24 hours ([5]; Table 2): 4.02E+08

Compound: CCCCCCCCCCCCN(CCCCCCCCCCCC)CCN1CCN(CCN(CCCCCCCCC)CCN(CCCCCCCCC)CCCCCCCCC)CC1 [Compound 19, N^1-(2-(4-(2-(Didodecylamino)ethyl)piperazin-1-yl)ethyl)-N^1,N^2,N^2-trinonylethane-1,2-diamine]
Total Flux Femur ([1]; Table 3, mice): 2.75E+06
Total Flux Liver ([1]; Table 3, mice, liver): 1.89E+09
Total Flux Lung ([1]; Table 3, mice): 2.27E+06
Total Flux Spleen ([1]; Table 3, mice, spleen): 8.28E+06
PDI [2, 7]: 0.100
Size (nm) [2, 8]: 76.1 nm
pKa [3, 7]: 6.29
IL-6 (IL-6; Table 4): 70
EE (%) [4, 7]: 97.2%
IP-10 (IP-10; Table 4): 2326
Total Flux 3 hours ([5]; Table 2): 1.06E+10
Total Flux 6 hours ([5]; Table 2): 6.52E+09
Total Flux 24 hours ([5]; Table 2): 2.65E+09

Second part, led by results:

PDI ([2]; Table 19-1): 0.088
Size (nm) ([2]; Table 19-1): 137.7 nm
particle size, rank within the named table (in words) [2, 6]: largest particles
pKa ([3]; Table 19-1): 5.89
IL-6 (IL-6; Table 19-4): 7571
IL-6 induction, rank within the named table (in words) (IL-6): highest IL-6 expression
EE (%) ([4]; Table 19-1): 16.9%
encapsulation efficiency, rank within the named table (in words) [4, 6]: lowest encapsulation efficiency
IP-10 (IP-10; Table 19-4): 433
IP-10 induction, rank or comparison with IL-6 (in words) (IP-10): highest IP-10 expression
Compound: CCCCC/C=C\C/C=C\CCCCCCCCN(CCCCCCCC/C=C\C/C=C\CCCCC)CCN1CCN(CCCCCCCCCCCC)CC1 [Compound 19-6, (9Z,12Z)—N-(2-(4-Dodecylpiperazin-1-yl)ethyl)-N-((9Z,12Z)-octadeca-9,12-dien-1-yl)octadeca-9,12-dien-1-amine]
Total Flux Liver ([1]; Table 19-3, mice, liver): 3.27E+06
Total Flux Lung ([1]; Table 19-3, mice): 1.81E+05
Total Flux Spleen ([1]; Table 19-3, mice, spleen): 3.47E+06
Total Flux 3 hours ([5]; Table 19-2): 1.07E+07
Total Flux 6 hours ([5]; Table 19-2): 1.27E+07
Total Flux 24 hours ([5]; Table 19-2): 1.29E+06
total flux / Luc expression, rank within the named table (in words) ([5]; each time point): next highest flux

PDI [2, 10]: 0.130
Size (nm) [2, 10]: 85.7 nm
pKa [3, 10]: 6.42
IL-6 (IL-6; Table 20-4, formula (20-I)): 739.0
IL-6 induction, rank within the named table (in words) (IL-6): highest
EE (%) [4, 10]: 91.4%
IP-10 (IP-10; Table 20-4, formula (20-I)): 2356.8
Compound: CCCCCCCCCCCCN(CCO)CCN(CCCCCCCC(=O)OCCCCCCCCC)CCCCCCCC(=O)OCCCCCCCCC [Compound 20-10, Dinonyl 8,8′-((2-(dodecyl(2-hydroxyethyl)amino)ethyl)azanediyl)dioctanoate]
Total Flux Femur ([1]; Table 20-3, mice): 3.09E+06
Total Flux Liver ([1]; Table 20-3, mice, liver): 4.40E+08
Total Flux Lung ([1]; Table 20-3, mice): 5.01E+06
Total Flux Spleen ([1]; Table 20-3, mice, spleen): 9.67E+07
Total Flux 3 hours ([5]; Table 20-2): 5.05E+09
Total Flux 6 hours ([5]; Table 20-2): 2.16E+09
Total Flux 24 hours ([5]; Table 20-2): 2.54E+08

PDI [2, 10]: 0.150
Size (nm) [2, 10]: 70.1 nm
pKa [3, 10]: 6.31
IL-6 (IL-6; Table 20-4, formula (20-I)): 102
EE (%) [4, 10]: 91.1%
IP-10 (IP-10; Table 20-4, formula (20-I)): 572.7
Compound: CCCCCCCCCCCCN(CCO)CCN(CCCCCCCCC)CCCCCCCCC [Compound 20-18, 2-((2-(Dinonylamino)ethyl)(dodecyl)amino)ethan-1-ol]
Total Flux Femur ([1]; Table 20-3, mice): 3.78E+05
Total Flux Liver ([1]; Table 20-3, mice, liver): 4.83E+08
Total Flux Lung ([1]; Table 20-3, mice): 1.84E+06
Total Flux Spleen ([1]; Table 20-3, mice, spleen): 2.36E+06
Total Flux 3 hours ([5]; Table 20-2): 5.80E+09
Total Flux 6 hours ([5]; Table 20-2): 6.48E+09
Total Flux 24 hours ([5]; Table 20-2): 1.54E+09

PDI ([2]; Table 17-1): 0.137
Size (nm) ([2]; Table 17-1): 88.4 nm
pKa ([3]; Table 17-1): 6.92
IL-6 (IL-6; Table 17-4): 49.2
EE (%) ([4]; Table 17-1): 94.2%
IP-10 (IP-10; Table 17-4): 300
Compound: CCCCC/C=C\C/C=C\CCCCCCCCN(CCO)CCCCCCCCCCCCCC [Compound 17-5, 2-(((9Z,12Z)—Octadeca-9,12-dien-1-yl)(tetradecyl)amino)ethan-1-ol]
Total Flux Liver ([1]; Table 17-3, mice, liver): 1.17E+08
Total Flux Lung ([1]; Table 17-3, mice): 8.13E+05
Total Flux Spleen ([1]; Table 17-3, mice, spleen): 2.13E+06
total flux in the liver, rank within the named table (in words) ([1]; mice, liver): somewhat comparable to those including MC3
total flux in the spleen, rank within the named table (in words) ([1]; mice, spleen): highest
Total Flux 3 hours ([5]; Table 17-2): 6.64E+08
Total Flux 6 hours ([5]; Table 17-2): 8.54E+08
Total Flux 24 hours ([5]; Table 17-2): 5.97E+07
